Organism: Rattus norvegicus
Experiment: DrugMatrix - Regimen: Daily Repeat
Format: toxicity, organism-based, Sprague-Dawley
Set-up: regimen Daily Repeat, gender Male, age 6-8 weeks
Details: in vivo, sc, route subcutaneous, […]; for ABSOLUTE BASOPHIL / ABSOLUTE EOSINOPHIL / ABSOLUTE LYMPHOCYTE / ABSOLUTE MONOCYTE / ABSOLUTE SEGMENTED NEUTROPHIL / BASOPHIL / EOSINOPHIL / ERYTHROCYTE COUNT / HEMATOCRIT / HEMOGLOBIN / LEUKOCYTE COUNT / LYMPHOCYTE / MEAN CORPUSCULAR HEMOGLOBIN / MEAN CORPUSCULAR HEMOGLOBIN CONCENTRATION / MEAN CORPUSCULAR VOLUME / MONOCYTE / NEUTROPHIL / NUCLEATED RED BLOOD CELLS / PLATELET COUNT: tissue Blood; for ALANINE AMINOTRANSFERASE / ALBUMIN / ALKALINE PHOSPHATASE / ASPARTATE AMINOTRANSFERASE / BLOOD UREA NITROGEN / CARBON DIOXIDE / CHLORIDE / CHOLESTEROL / CREATINE PHOSPHOKINASE / CREATININE / GLUCOSE / LACTATE DEHYDROGENASE / LIPASE / PHOSPHORUS / POTASSIUM / SODIUM / TOTAL BILIRUBIN / TOTAL PROTEIN / URIC ACID: tissue Plasma
[1] = 0 mg/kg, 72 h, dose level Control, time 3 day
[2] = 0 mg/kg, 120 h, dose level Control, time 5 day
[3] = 2 mg/kg, 72 h, dose level Low, time 3 day

## CCC(=O)O[C@]1(C(=O)CCl)[C@@H](C)C[C@H]2[C@@H]3CCC4=CC(=O)C=C[C@]4(C)[C@@]3(F)[C@@H](O)C[C@@]21C [CLOBETASOL PROPIONATE]
[1]
  ABSOLUTE BASOPHIL: 0 CELLS/uL
  ABSOLUTE EOSINOPHIL: 42.67 CELLS/uL
  ABSOLUTE LYMPHOCYTE: 10202 CELLS/uL
  ABSOLUTE MONOCYTE: 261.5 CELLS/uL
  ABSOLUTE SEGMENTED NEUTROPHIL: 2193.83 CELLS/uL
  BASOPHIL: 0%
  EOSINOPHIL: 0.33%
  ERYTHROCYTE COUNT: 5.63 x10E6/uL
  HEMATOCRIT: 35.35%
  HEMOGLOBIN: 13.07 G/DL
  LEUKOCYTE COUNT: 12.7 x10E3/uL
  LYMPHOCYTE: 81.17%
  MEAN CORPUSCULAR HEMOGLOBIN: 23.23 pg
  MEAN CORPUSCULAR HEMOGLOBIN CONCENTRATION: 36.97 G/DL
  MEAN CORPUSCULAR VOLUME: 62.82 fL
  MONOCYTE: 2%
  NEUTROPHIL: 16.5%
  NUCLEATED RED BLOOD CELLS: 0 /100WBC
  PLATELET COUNT: 1180.33 x10E3/uL
  ALANINE AMINOTRANSFERASE: 48.67 u/L
  ALBUMIN: 4.08 G/DL
  ALKALINE PHOSPHATASE: 360.67 u/L
  ASPARTATE AMINOTRANSFERASE: 85.5 u/L
  BLOOD UREA NITROGEN: 17.83 mg/dL
  CARBON DIOXIDE: 26.17 mmol/L
  CHLORIDE: 101.83 MEQ/L
  CHOLESTEROL: 71 mg/dL
  CREATINE PHOSPHOKINASE: 515.17 u/L
  CREATININE: 0.22 mg/dL
  GLUCOSE: 192.5 mg/dL
  LACTATE DEHYDROGENASE: 214.67 u/L
  LIPASE: 8.5 u/L
  PHOSPHORUS: 12.95 mg/dL
  POTASSIUM: 6.39 MEQ/L
  SODIUM: 142.38 MEQ/L
  TOTAL BILIRUBIN: 0.18 mg/dL
  TOTAL PROTEIN: 5.95 G/DL
  URIC ACID: 1.83 mg/dL
[2]
  ABSOLUTE BASOPHIL: 0 CELLS/uL
  ABSOLUTE EOSINOPHIL: 188.5 CELLS/uL
  ABSOLUTE LYMPHOCYTE: 12360.83 CELLS/uL
  ABSOLUTE MONOCYTE: 64.33 CELLS/uL
  ABSOLUTE SEGMENTED NEUTROPHIL: 1986.33 CELLS/uL
  BASOPHIL: 0%
  EOSINOPHIL: 1.33%
  ERYTHROCYTE COUNT: 5.52 x10E6/uL
  HEMATOCRIT: 35.82%
  HEMOGLOBIN: 13.25 G/DL
  LEUKOCYTE COUNT: 14.6 x10E3/uL
  LYMPHOCYTE: 84.5%
  MEAN CORPUSCULAR HEMOGLOBIN: 24.05 pg
  MEAN CORPUSCULAR HEMOGLOBIN CONCENTRATION: 36.98 G/DL
  MEAN CORPUSCULAR VOLUME: 64.97 fL
  MONOCYTE: 0.5%
  NEUTROPHIL: 13.67%
  NUCLEATED RED BLOOD CELLS: 0 /100WBC
  PLATELET COUNT: 1297.83 x10E3/uL
  ALANINE AMINOTRANSFERASE: 51.17 u/L
  ALBUMIN: 4.08 G/DL
  ALKALINE PHOSPHATASE: 393.17 u/L
  ASPARTATE AMINOTRANSFERASE: 111 u/L
  BLOOD UREA NITROGEN: 18.17 mg/dL
  CARBON DIOXIDE: 25 mmol/L
  CHLORIDE: 105.17 MEQ/L
  CHOLESTEROL: 65.5 mg/dL
  CREATINE PHOSPHOKINASE: 911.5 u/L
  CREATININE: 0.21 mg/dL
  GLUCOSE: 183 mg/dL
  LACTATE DEHYDROGENASE: 189 u/L
  LIPASE: 8.33 u/L
  PHOSPHORUS: 12.78 mg/dL
  POTASSIUM: 6.05 MEQ/L
  SODIUM: 144.57 MEQ/L
  TOTAL BILIRUBIN: 0.25 mg/dL
  TOTAL PROTEIN: 5.83 G/DL
  URIC ACID: 1.58 mg/dL
[3]
  ABSOLUTE BASOPHIL: 0 CELLS/uL
  ABSOLUTE EOSINOPHIL: 0 CELLS/uL
  ABSOLUTE LYMPHOCYTE: 788.33 CELLS/uL
  ABSOLUTE MONOCYTE: 9 CELLS/uL
  ABSOLUTE SEGMENTED NEUTROPHIL: 1836 CELLS/uL
  BASOPHIL: 0%
  EOSINOPHIL: 0%
  ERYTHROCYTE COUNT: 5.93 x10E6/uL
  HEMATOCRIT: 37.1%
  HEMOGLOBIN: 13.23 G/DL
  LEUKOCYTE COUNT: 2.63 x10E3/uL
  LYMPHOCYTE: 30%
  MEAN CORPUSCULAR HEMOGLOBIN: 22.33 pg
  MEAN CORPUSCULAR HEMOGLOBIN CONCENTRATION: 35.67 G/DL
  MEAN CORPUSCULAR VOLUME: 62.57 fL
  MONOCYTE: 0.33%
  NEUTROPHIL: 69.67%
  NUCLEATED RED BLOOD CELLS: 0 /100WBC
  PLATELET COUNT: 1219.67 x10E3/uL
  ALANINE AMINOTRANSFERASE: 121.33 u/L
  ALBUMIN: 4.93 G/DL
  ALKALINE PHOSPHATASE: 505.33 u/L
  ASPARTATE AMINOTRANSFERASE: 281.67 u/L
  BLOOD UREA NITROGEN: 25.67 mg/dL
  CARBON DIOXIDE: 21.33 mmol/L
  CHLORIDE: 99.33 MEQ/L
  CHOLESTEROL: 138.33 mg/dL
  CREATINE PHOSPHOKINASE: 1714.67 u/L
  CREATININE: 0.33 mg/dL
  GLUCOSE: 547 mg/dL
  LACTATE DEHYDROGENASE: 291 u/L
  LIPASE: 10 u/L
  PHOSPHORUS: 12.6 mg/dL
  POTASSIUM: 5.98 MEQ/L
  SODIUM: 140.33 MEQ/L
  TOTAL BILIRUBIN: 0.2 mg/dL
  TOTAL PROTEIN: 7.07 G/DL
  URIC ACID: 2.33 mg/dL
